ChEMBL document CHEMBL5620379, “Discovery, SAR and mechanistic studies of quinazolinone-based acetamide derivatives in experimental visceral leishmaniasis” (Eur J Med Chem, 2023)

Columns and labels:
[1] = tested on: J774; test: Cytotoxicity against mouse J774 cells at 25 uM incubated for 72 hrs by MTT assay relative to control; format: toxicity, cell-based; settings: j774, 72 h
[2] = tested on: Leishmania donovani; test: Antileishmanial activity against Leishmania donovani amastigotes infected in J774 macrophage assessed as inhibition of parasite growth incubated for 48 hrs by luciferase assay; format: functional, organism-based; settings: J774, 48 h
[3] = Selectivity index, ratio of CC50 for mouse J774 macrophage to IC50 for Leishmania donovani amastigotes infected in J774 macrophage; format: toxicity; settings: J774 macrophages, read-out: Ratio CC50/IC50
[4] = tested on: J774; test: Cytotoxicity against mouse J774 cells at 12.5 uM incubated for 72 hrs by MTT assay relative to control; format: toxicity, cell-based; settings: j774, 72 h
[5] = tested on: Leishmania donovani; test: Antileishmanial activity against Leishmania donovani promastigotes measured after 48 hrs by MTT assay; format: functional, organism-based
[6] = tested on: J774; test: Cytotoxicity against mouse J774 cells at 50 uM incubated for 72 hrs by MTT assay relative to control; format: toxicity, cell-based; settings: j774, 72 h
[7] = tested on: J774; test: Cytotoxicity against mouse J774 macrophage incubated for 72 hrs by MTT assay; format: functional
[8] = tested on: Leishmania donovani; test: Antileishmanial activity against Leishmania donovani promastigotes at 25 uM measured after 48 hrs by MTT assay relative to control; format: functional
[9] = tested on: Leishmania donovani; test: Antileishmanial activity against Leishmania donovani amastigotes infected in J774 macrophage assessed as inhibition of parasite growth at 25 uM incubated for 48 hrs by luciferase assay relative to control; format: functional; set-up: scale not given: the % may be the effect or the level left

Row | SMILES | Activity [1] [%] | IC50 [2] [µM] | selectivity ratio [3] | Activity [4] [%] | IC50 [5] [µM] | Activity [6] [%] | CC50 [7] [µM] | Activity [8] [%] | Activity [9] [%]
1 | Cn1c(-c2ccc(OCC(=O)Nc3cccc4cccnc34)cc2)nc2ccccc2c1=O | 76.21 | 18.4 | 2.32 | 82.65 | 16.1 | 42.14 | 42.7 | – | –
2 | COc1ccc(NC(=O)COc2ccc(-c3nc4ccccc4c(=O)n3C)cc2)cc1 | 78.71 | 26.1 | 1.5 | 83.71 | 14.3 | 35.93 | 39.2 | – | –
3 | Cn1c(-c2ccc(OCC(=O)Nc3ccc(Cl)cc3)cc2)nc2ccccc2c1=O | 81.59 | 22.1 | 2.78 | 85.35 | 16.1 | 58.88 | 61.8 | – | –
4 | Cn1c(-c2ccc(OCC(=O)Nc3ccncc3)cc2)nc2ccccc2c1=O | 51.89 | – | – | 71.91 | – | 40.96 | – | – | –
5 | CCn1c(-c2ccc(OCC(=O)Nc3cccc(C(F)(F)F)c3)cc2)nc2ccccc2c1=O | 77.31 | 20.9 | 2.15 | 87.75 | 19.8 | 47.72 | 45 | – | –
6 | Cc1ccc(NC(=O)COc2ccc(-c3nc4ccccc4c(=O)n3C)cc2)cc1Cl | 52.13 | – | – | 68.41 | – | 47.78 | – | – | –
7 | Cn1c(-c2ccc(OCC(=O)Nc3ccccn3)cc2)nc2cc(F)ccc2c1=O | 58.74 | 9.16 | 3.82 | 85.3 | 6.25 | 30.36 | 35.1 | – | –
8 | Cn1c(-c2ccc(OCC(=O)Nc3ccc(F)cc3)cc2)nc2ccccc2c1=O | 69.62 | 11.5 | 3.62 | 82.8 | 8.02 | 38.87 | 41.6 | – | –
9 | CCn1c(-c2ccc(OCC(=O)Nc3ccccn3)cc2)nc2ccccc2c1=O | 79.09 | 27.2 | 1.45 | 84.82 | 23.9 | 38.97 | 39.5 | – | –
10 | CC(C)c1ccc(NC(=O)COc2ccc(-c3nc4ccccc4c(=O)n3C)cc2)cc1 | 67.4 | – | – | 69.76 | – | 49.31 | – | – | –
11 | Cn1c(-c2ccc(OCC(=O)Nc3ccc([N+](=O)[O-])cc3)cc2)nc2ccccc2c1=O | 80.58 | 22.2 | 2.45 | 84.05 | 18.8 | 55.85 | 54.4 | – | –
12 | COc1ccc(NC(=O)COc2cccc(-c3nc4ccccc4c(=O)n3C)c2)cc1 | 52.92 | – | – | 64.08 | – | 29.78 | – | – | –
13 | Cn1c(-c2ccc(OCC(=O)Nc3ccc4c(c3)OCO4)cc2)nc2ccccc2c1=O | 78.08 | 21.5 | 2.25 | 85.01 | 17.5 | 45.89 | 48.5 | – | –
14 | Cn1c(-c2cccc(OCC(=O)Nc3cccc(C(F)(F)F)c3)c2)nc2ccccc2c1=O | 53.5 | – | – | 69.23 | – | 36.03 | – | – | –
15 | CCn1c(-c2ccc(OCC(=O)Nc3ccc(C)cc3)cc2)nc2ccccc2c1=O | 68.99 | 10.1 | 4.03 | 85.97 | 8.43 | 37.91 | 40.9 | – | –
16 | COc1ccc(NC(=O)COc2ccc(-c3nc4ccccc4c(=O)n3C)cc2)cc1OC | 67.45 | 10.5 | 3.53 | 83.52 | 7.86 | 37.47 | 37 | – | –

Row | SMILES | Activity [1] [%] | IC50 [2] [µM] | selectivity ratio [3] | Activity [4] [%] | IC50 [5] [µM] | Activity [6] [%] | CC50 [7] [µM] | Activity [8] [%] | Activity [9] [%]
17 | Cn1c(-c2ccc(OCC(=O)Nc3ccccc3)cc2)nc2ccccc2c1=O | 78.47 | 22.6 | 1.91 | 87.94 | 17.6 | 42.62 | 43.2 | – | –
18 | Cc1ccc(NC(=O)COc2cccc(-c3nc4ccccc4c(=O)n3C)c2)cc1 | 41.69 | – | – | 65.55 | – | 31.44 | – | – | –
19 | CCn1c(-c2ccc(OCC(=O)Nc3ccc(OC)cc3)cc2)nc2ccccc2c1=O | 62.11 | – | – | 67.45 | – | 43.01 | – | – | –
20 | CCn1c(-c2ccc(OCC(=O)Nc3ccc(F)cc3)cc2)nc2ccccc2c1=O | 43.73 | – | – | 59.51 | – | 34.39 | – | – | –
21 | CCc1ccc(NC(=O)COc2ccc(-c3nc4ccccc4c(=O)n3C)cc2)cc1 | 79.14 | 20.1 | 1.89 | 81.78 | 15.1 | 33.38 | 38.1 | – | –
22 | Cn1c(-c2cccc(OCC(=O)Nc3ccc(F)cc3)c2)nc2ccccc2c1=O | 56.86 | – | – | 66.92 | – | 31.32 | – | – | –
23 | CCn1c(-c2ccc(OCC(=O)Nc3ccc(Cl)cc3)cc2)nc2ccccc2c1=O | 47.53 | – | – | 67.21 | – | 32.52 | – | – | –
24 | Cc1ccc(NC(=O)COc2ccc(-c3nc4ccccc4c(=O)n3C)cc2)cc1 | 81.98 | 24.5 | 2.07 | 85.59 | 22.1 | 49.93 | 50.7 | – | –
25 | Cn1c(-c2cccc(OCC(=O)Nc3ccc(Cl)cc3)c2)nc2ccccc2c1=O | 71.35 | 11.9 | 4.54 | 84.53 | 9.11 | 55.23 | 54.1 | – | –
26 | Cn1c(-c2ccc(OCC(=O)Nc3ccc(C(C)(C)C)cc3)cc2)nc2ccccc2c1=O | 55.66 | – | – | 59.75 | – | 26.84 | – | – | –
27 | Cn1c(-c2ccc(OCC(=O)Nc3cccc(C(F)(F)F)c3)cc2)nc2ccccc2c1=O | 78.66 | 21.9 | 2.17 | 86.45 | 12.3 | 48.49 | 47.7 | – | –
28 | Cn1c(-c2ccc(OCC(=O)Nc3ccc4c(c3)CCC4)cc2)nc2ccccc2c1=O | 53.88 | 6.23 | 5.09 | 87.89 | 8.26 | 36.13 | 31.7 | 79.73 | 78.87
29 | COc1cc(NC(=O)COc2ccc(-c3nc4ccccc4c(=O)n3C)cc2)cc(OC)c1OC | 51.67 | – | – | 69.04 | – | 39.78 | – | – | –
30 | Cn1c(-c2ccc(OCC(=O)Nc3ccccn3)cc2)nc2ccc(Cl)cc2c1=O | 59.37 | – | – | 65.58 | – | 39.88 | – | – | –
31 | Cc1ccc(NC(=O)COc2ccc(-c3nc4ccccc4c(=O)n3C)cc2)cc1C | 46.38 | – | – | 67.4 | – | 31.465 | – | – | –
